Read-outs that look alike come from different tables or passages of the source. A value given as a limit tells only on which side of the number the result lay.

Series [1] deals with WiDr (Human, colon). To be noted: ref. [1]; cited from earlier work.
Series [2] deals with 8226 (Human myeloma). As to conditions: ref. [1]; cited from earlier work.
In series [3] the test system is different neuroblastoma cell lines. To be noted: ref. [2]; cited from earlier work.
Series [4] relates to (Human, breast). To be noted: ref. [1]; cited from earlier work.
Series [5] deals with Fibroplasts. Put plainly: Viability of fibroplasts (MTT). It counts as cell-based. To be noted: Fibroplasts (normal cells); read-out: Toxicity of the complexes: IC50. The protocol:
Determination of viability of fibroplasts (Table 4)
Cells were grown either in DMEM medium (Dulbecco's Modified Eagle's Medium) supplemented with 10 % FCS, 1 % L-glutamine and 1% streptomycin/ penicillin up to 80-90 % confluence. Then the cells were trypsinated, washed, re-suspended in the same medium and spread in wells of a 96-wells microtiter plate (-25.000 cells per well, per 100 µL) and left standing at 37 °C in the chamber filled with CO2 (5 %) for 5 h. Stock solutions of prodrugs of different concentrations (1 µL, solvent: DMF / water (1/3, v/v) containing 1 % sodium ascorbate) were added to the wells and incubated for specific periods of time. Four experiments were conducted for each concentration of the prodrug.

A short description of series [6]: TLC retention factor as measure of hydrophobicity. In kind it is physicochemical. To be noted: support - SiO2, eluent - hexane / ethyl acetate (3/1, v/v); proportional to hydrophobicity.
Series [7] deals with HL60-cells. Put plainly: Cell permeability of the prodrugs (boron/curcumin assay). It counts as cell-based, Human. To be noted: 100 µM, 1 h, boron relative to comparative example C.-E. As to the method:
Assay for determination of cell Permeability of the prodrugs (Table 2) (according to the protocol described in J.Plant Nutr. Soil Sci. 1999,162,15-18) HL60-cells grown in RPMI 1640 medium supplemented with 10 % FCS, 1 % glutamine and 1% penicillin / streptomycin were centrifuged and the medium was replaced with RPMI 1640 medium (5 % FCS, 1 % L-glutamine, 1% penicillin) to obtain suspensions containing 10^6 cells per mL. Solutions of prodrugs (5 µL, solvent: DMF containing 2 % water and 1 % sodium ascorbate) were added to the suspensions (500 µL) and incubated for 1 h. The final concentration of the prodrugs in the suspensions was 100 µM. Then the cells were washed 3 times with PBS buffer (3 x 500 µL), treated with concentrated H2O2 solution (200 µL, 1 M) for 30 min and all volatiles were removed by lyophilization. Dry, lysed cells were washed with water (200 µL) and aqueous solution obtained was acidified with HCl (400 µL, 0.1 M). Then this solution was extracted with ethyl-1,3-hexandiol (100 µL, 10 % in CHCl3, v/v) and a portion of the organic phase obtained (40 µL) was mixed with H2SO4 / CH3CO2H (400 µL, 1/1, v/v). Curcumin solution in methylisobutylketone (500 µL, 2 mg in 1 mL of the solvent) was added and allowed to react for 24 h. The reaction was quenched by addition of water (1 mL). […] The value A(550 nm)-A(780 nm) was proportional to concentration of boron in the mixture. Amount of boron released from comparative example C.-E. was taken as a reference. All other values were determined relative to this reference. These values are compared in Table 2 with TLC retention factors, which are proportional to hydrophobicity of the prodrugs.

Series [8] can be described thus: Release of iron ions from the prodrugs in the presence of hydrogen peroxide (2,2'-bipyridine absorbance). In kind it is physicochemical. To be noted: H2O2 (1 mM), 22°C, 100 min, MOPS buffer pH 7.5; relative to FeSO4 (100 µM). The protocol: Monitoring release of iron ions from the prodrugs A-E, Comparative Example and control compounds in the presence of hydrogen peroxide (Table 1):
Solution of a ferrocene complex (10 µL, 10 mM in DMF containing 2% water and 1% sodium ascorbate) was diluted with MOPS buffer (990 µL, 100 mM, pH 7.5). Such probes were incubated with H2O2 (1 mM) at 22°C for 100 min. Then the reaction was quenched by adding sodium dithionite (20 µL, 1 M in water) that converts Fe^3+ into Fe^2+. Finally, 2,2'-bipyridine solution (3 µL, 100 mM in DMF) was added to form dark red [Fe(2,2'-bipyridine)3]^2+ complex (λmax= 519 nm). FeSO4 sulfate (100 µM) was used as a positive control to determine the absorbance intensity when the ferrocene complexes were completely converted by H2O2 to free Fe^2+. […] The data are provided in Table 2 and were determined by using the following formulae: iron release efficacy = (A519nm(prodrug) - A519nm(buffer)) / (A519nm(FeSO4) - A519nm(buffer)), where A519nm(prodrug) is absorbance at 519 nm of a prodrug treated with H2O2 and 2,2'-bipyridine as described above, A519nm(FeSO4) is absorbance at 519 nm of FeSO4 treated in a similar way as a prodrug and A519nm(buffer) is absorbance at 519 nm of the buffer only treated in a similar way as a prodrug.

Series [9] can be described thus: Generation of ROS in vitro (DCFH fluorescence, cell-free). In kind it is biochemical. As to conditions: iron complex 100 µM, H2O2 (10 mM), glutathione (5 mM), pH 7.5, relative to FeSO4. As to the method:
Monitoring generation of ROS in the presence of the prodrugs A-E, Comparative Example and control compounds (Table 1):
2',7'-Dichlorfluorescin diacetate (DCFH-DA, 4.9 mg) was dissolved in DMF (100 µL) and mixed with aqueous NaOH (0.1 M, 900 µL). The resulting mixture was incubated for 30 min at 22°C in the dark to obtain the stock solution of 2',7'-dichlorfluorescin (DCFH, 10 mM). Next, the solution (1 mL) containing DCFH (10 µM), MOPS buffer (100 mM, pH 7.5), EDTA (10 mM), glutathione (5 mM) and H2O2 (10 mM) was prepared. Monitoring of fluorescence (λex= 501 nm, λem= 531 nm) of this solution was started. After 3 min, an iron complex (100 µM: ferrocene prodrugs A-E, Comparative Example, negative or positive controls 1 a, P) was added and the fluorescence monitoring was continued. Efficacy of ROS generation was then determined 17 and 37 min after the addition of the iron complex by using the following formulae: efficacy = (F(prodrug) - F0) / (F(FeSO4) - F0), where F(prodrug) is fluorescence of a mixture containing prodrug and treated as described above, F(FeSO4) is fluorescence of a mixture containing FeSO4; F0 is fluorescence of a mixture containing no iron complex.

In series [10] the test system is HL-60 cells. Put plainly: Generation of ROS in cells (DCFH-DA, flow cytometry). In kind it is cell-based, Human. To be noted: 50 µM, 4 h. As to the method:
Generation of ROS in HL-60 cells in the presence the prodrugs, comparative example C.-E. and controls (Table 3)
The probe of HL-60 cells was taken from the cultivation medium (RPMI 1640 supplemented with 10 % FCS, 1 % L-glutamine and 1% penicillin). The medium was replaced for PBS-buffer to obtain the cell suspension with 10^6 cells per mL. DCFH-DA solution (1 µL, 10 mM in DMSO) was added to the suspension (1 mL) and incubated in the dark chamber filled with CO2 (5 %) at 37 °C for 5 min. Then, the cells were washed with PBS and RPMI 1640 (5 % FCS, 1 % L-glutamine, 1% penicillin) medium and an iron complex (10 µL of stock solutions, solvent: DMF containing 2 % water and 1 % sodium ascorbate, final concentration of the complex - 50 µM) was added. After 4 h of the incubation the fluorescence of live cells (λex = 488 nm, λem = 530 nm) in the suspensions was determined by using the flow cytometer. Efficacy of ROS generation was determined using the following formulae: efficacy = (F(prodrug) - F0) / (F(FeSO4) - F0), where F(prodrug) is mean fluorescence intensity of cells incubated with a prodrug and treated as described above, F(FeSO4) is mean fluorescence intensity of cells incubated with FeSO4; F0 is mean fluorescence intensity of cells, which were not treated with any iron complex.
A general note: Flow cytometry measures light scatter and fluorescence of single cells or particles in a stream.

For series [11], the system named is Human promyelocytic leukemia cells (HL-60). Put plainly: Viability of HL-60 cells (propidium iodide, flow cytometry). In kind it is cell-based. As to conditions: read-out: Toxicity of the complexes: IC50. The protocol:
Determination of viability of HL-60 cells (Table 4)
HL-60 cells grown in RPMI 1640 medium supplemented with 10 % FCS, 1 % L-glutamine and 1% penicillin were centrifuged, the medium was replaced with RPMI 1640 medium (5 % FCS, 1 % L-glutamine, 1% penicillin) to obtain suspensions containing 10^6 cells per mL. Stock solutions of prodrugs of different concentrations (5 µL, solvent: DMF containing 2 % water and 1 % sodium ascorbate) were added to the cellular suspensions (500 µL) and incubated for specific periods of time. Four experiments were conducted for each concentration of the prodrug. At the end of the incubation period propidium iodide (PI, 1 µL, 1.5 mM in water) was added to label leaky cells and in 5 min the suspension of the cells was analyzed by using flow cytometry.

For series [12], the system named is MES-SA human uterine cancer. To be noted: ref. [6]; cited from earlier work.
The subject of series [13] is HT29 (Human, colon). To be noted: ref. [4]; cited from earlier work.
Series [14] relates to SW480 (Human, colon). To be noted: ref. [3]; cited from earlier work.
The subject of series [15] is HCT8 (colon). As to conditions: ref. [8]; cited from earlier work.
Series [16] has as its system HL-60 (leukemia). To be noted: ref. [8]; cited from earlier work.
Series [17] concerns Human multiple myeloma. To be noted: ref. [7]; cited from earlier work.

What is called IC50 is the concentration needed to halve the response being measured. Consider `CCCCS(=N)(=O)CCC(N)C(=O)O` (stereo not shown) [Buthionine sulfoximine (BSO), Buthionine sulfoximine], for which the half-inhibitory concentration (IC50) in [1] is 450 µM; in series [2], 2 µM; in [3], 0.3 to 311 µM; in series [4], 850 µM.
As for “4-((N-benzyl-N-Ferrocenylaminocarbonyl)oxymethyl)-2-phenylboronic acid pinacol ester [Prodrug B]”, the IC50 in series [5] was over 50 µM; in series [11] (listed as prodrug B) it was 12 to 26 µM; in [11], 12 ± 2 µM. In addition, the “TLC-retention factor (Rf)” value in series [6] was 0.46. The “Relative efficiency of cell loading” value in [7] came to 1.8. The “Efficacy of iron release in vitro” value in [8] worked out at 0.09. The results for the “Efficacy of ROS generation in vitro” value in series [9] (17 min incubation) and in series [9] (37 min incubation) were 0.24 and 0.53, respectively. Besides, the “Efficacy of ROS release in cells” value in [10] is recorded as 0.09 ± 0.02.
Take `CC(=O)[O-].CC(=O)[O-].CCc1c(CC)c2cc3nc(cnc4cc(OCCOCCOCCOC)c(OCCOCCOCCOC)cc4ncc4nc(cc1[n-]2)C(CCCO)=C4C)C(C)=C3CCCO.[Gd+3]` [Motexafin gadolinium]: the half-maximal inhibitory concentration (IC50) in series [12] was about 12 µM.
Consider `CC(=O)Oc1ccccc1C(=O)Oc1cccc(CO[N+](=O)[O-])c1` [NO-ASA], for which the half-inhibitory concentration (IC50) was 3 to 7 µM in series [13] and 85 µM in series [14].
Regarding `CC1(C)CCC2=C(O1)c1ccccc1C(=O)C2=O` [β-Lapachone], the IC50 in series [15] was 0.83 µM; in [16], 1.65 µM; in [17], 1 µM.

The values are drawn from EP2497775A1, “Ferrocene-based compounds and their use as ROS regulating prodrugs” (Ruprecht-Karls-Universität Heidelberg, priority 2011, dated 2012).
